In this data set the test system is Mucin type II from porcine stomach. The data set is described as follows: Peptide diffusion across a mono-component mucin layer (Transwell donor to acceptor chamber). The class given is in vitro ADME. Conditions: for time window in which acceptor concentration plateaued / leveled off: donor 266 and 133 μg/mL (both concentrations); for time window in which acceptor concentration plateaued / leveled off / time window in which acceptor concentration plateaued: mucin layer, pH 6.8, HPLC; for maximum concentration in the acceptor chamber: ~2.5% (w/v) Type II porcine mucin on Transwell, phosphate buffer pH 6.8, 37°C, over 6 h, HPLC-UV 214 nm. On the procedure:
Around 2.5% (w/v) of Type II porcine mucin was added to the donor side of the Transwell™ plate along with 300–1000 μL of 6.8 pH phosphate buffer. The mixture was shaken at 37°C for 45–60 min until the proper suspension was attained. Then, 1–2 mL of phosphate buffer at 6.8 pH was added to the acceptor side of the Transwell™ plate.
Fig. 1 A schematic diagram of the diffusion chamber to study peptide diffusion through a mucin layer. The well consists of donor and acceptor chambers separated by a mucin layer. The peptide was added to the donor chamber, and the diffusion of the peptide was monitored by its appearance in the acceptor chamber. The peptide in the acceptor chamber was sampled as a function of time, and the peptide concentration was determined by fluorescence spectroscopy, HPLC, or mass spectrometry
Initially, FITC-ADT10 and FITC-HAV10 peptides were used to test the mucin model in phosphate buffer at pH 6.8. Different concentrations of peptide in phosphate buffer at pH 6.8 were added to the donor chamber; the acceptor chamber contained a phosphate buffer at pH 6.8 in the Transwell™. At predetermined time points, 100 μL aliquots were taken from the acceptor chamber, transferred into 96-well plates, and replaced with pre-heated phosphate buffer pH 6.8. The aliquots were then analyzed by fluorescence spectroscopy plate reader at […].
The diffusion of each unlabeled peptide from the donor-to-acceptor chambers was analyzed by Agilent® 1200 HPLC equipped with a Zorbax C18 column with 3.5 μm particle size and dimensions of 4.6 × 50 mm. The column temperature was held at 30°C during the chromatographic run. Mobile phase A was 0.1% trifluoroacetic acid in Milli-Q water, and mobile phase B was 0.085% trifluoroacetic acid in acetonitrile. The detector was a UV–Vis detector monitoring at 214 nm wavelengths. Calibration curves were prepared in phosphate buffer pH 6.8 in concentrations ranging from 1 to 266 μg/mL.
Student t-tests were used to analyze the difference between the percentage diffused of FITC-HAV10 and FITC-ADT10, octreotide and octreotide A5, and lanreotide and lanreotide A5. The difference in diffusion percentages of ADT peptides was analyzed using ANOVA with Student − Newman − Keul post hoc comparison of the means and Dunnett’s Test comparing DTPPD, DTPPT, and DTPPVK with ADTC5. Statistical significance was set at p < 0.05 unless otherwise stated.

As for `CC(C)[C@@H]1NC(=O)[C@H](CCCCN)NC(=O)[C@@H](Cc2c[nH]c3ccccc23)NC(=O)[C@H](Cc2ccc(O)cc2)NC(=O)[C@@H](NC(=O)[C@H](N)Cc2ccc3ccccc3c2)CSSC[C@@H](C(=O)N[C@H](C(N)=O)[C@@H](C)O)NC1=O` [Lanreotide], the “time window in which acceptor concentration plateaued / leveled off” value fell in the range of 4 to 6 h.
Take `C[C@@H](O)[C@@H]1NC(=O)[C@H](CCCCN)NC(=O)[C@@H](Cc2c[nH]c3ccccc23)NC(=O)[C@H](Cc2ccccc2)NC(=O)[C@@H](NC(=O)[C@H](N)Cc2ccccc2)CSSC[C@@H](C(=O)N[C@H](CO)[C@@H](C)O)NC1=O` [Octreotide]: the “time window in which acceptor concentration plateaued” value lay within 4 to 6 h (donor 133 μg/mL) and 2 to 6 h (donor 266 μg/mL). For the same compound, the “maximum concentration in the acceptor chamber” value (donor 133 μg/mL) is reported as 0.00593 mg/mL and the “maximum concentration in the acceptor chamber” value (donor 266 μg/mL) is recorded as 0.0116 mg/mL.
Consider “Cyclo(1,7)Ac-CDTPPVC-NH2 (disulfide) [ADTC5, cyclic ADT cadherin peptide that modulates intercellular junctions]”, for which the “time window in which acceptor concentration plateaued / leveled off” value lay within 2 to 6 h.
